The record followed here is patent US20250177408A1, “INHIBITOR OF INTERACTION BETWEEN YAP/TAZ AND TEAD, PREPARATION THEREOF, PHARMACEUTICAL COMPOSITION THEREOF AND USE THEREOF” (ETERN BIOPHARMA (SHANGHAI) CO., LTD., priority 2022, published 2025).

The structures appear in SMILES notation. Where only a bound is given, the exact number is not on record here.

Experiment [1] concerns the target YAP-TEAD protein interaction (His-TEAD1 (209-426) protein, Bio-YAP peptide (60-100)) (Homo sapiens, UniProt P28347). The experiment can be described thus: YAP-TEAD protein interaction HTRF experiment. It counts as binding. To be noted: His-TEAD1 (209-426) 10 nM, Bio-YAP peptide 50 nM, read-out: Activity of each compound in blocking YAP-TEAD protein interaction (grades of IC50 values). The method, boiled down: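 His-TEAD1 (209-426) at 10 nM final was preincubated 20 min at RT with compounds (10-point 3-fold dilutions, duplicates, 1% DMSO), then Bio-YAP peptide, 10 min. Anti-His-Eu cryptate/streptavidin-XL665 added for 1 h at RT; HTRF read at ex 320 nm, Em665/Em620 ratio ×10000, IC50 from % inhibition.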
On the technique in general: TR-FRET usually uses a lanthanide donor and a delayed reading to cut background.

Experiment [2] deals with MSTO-211H cells. Nature of the experiment: Cell proliferation inhibition experiment (CellTiter-Glo). It counts as cell-based. The settings on record: Homo sapiens, 96 hours, read-out: Inhibitory activity of each compound on the proliferation of MSTO-211H cells (grades of IC50 values). The protocol:
In this example, the intracellular ATP was quantitatively determined by the CellTiter-Glo luminescence cell viability detection kit to detect the number of living cells in the culture.
Step 1: MSTO-211H (ATCC, CRL-2081TM) or NCI-H2052 (ATCC, CRL-5915TM) cells were inoculated in a 96-well plate at a density of 1500 cells per well with a volume of 100 μL per well, and the cells were incubated overnight in a 37° C., 5% carbon dioxide incubator. The culture medium used was RPMI1640 medium (GIBCO-A10491-01)+10% FBS (GIBCO-10099141C)+1% penicillin/streptomycin (Pen/Strep) (GIBCO-15070-063).
Step 2: The cells were treated with the compounds to be tested. The compounds to be tested were 3-fold diluted, and a total of 9 concentration gradients were set up; a certain volume of DMSO or the compounds to be tested was added to each well, respectively, and 2 replicates were set up for each concentration, and the final concentration of DMSO was controlled to be no higher than 0.5%. The cells were incubated for 96 hours in a 37° C., 5% carbon dioxide incubator.
Step 3: Cell viability was detected in the control group and treatment group using CellTiter-Glo Luminescent Cell Viability Assay kit (Promega, G7570). 50 μL of CellTiter-Glo was added to each well, mixed well, and incubated at room temperature for 10 minutes. The signal was read using En Vision® Multilabel Plate Reader (Perkin Elmer).
The inhibition percentage (%) was calculated using the following formula: […]
Using Graphpad Prism software, the IC50 values of the compounds inhibiting the CTG signal of cell proliferation activity was calculated.
For orientation: ATP-based viability assays read luminescence as a measure of living cells.

Chain of YAP-TEAD protein interaction (His-TEAD1 (209-426) protein, Bio-YAP peptide (60-100)) (P28347 209-426): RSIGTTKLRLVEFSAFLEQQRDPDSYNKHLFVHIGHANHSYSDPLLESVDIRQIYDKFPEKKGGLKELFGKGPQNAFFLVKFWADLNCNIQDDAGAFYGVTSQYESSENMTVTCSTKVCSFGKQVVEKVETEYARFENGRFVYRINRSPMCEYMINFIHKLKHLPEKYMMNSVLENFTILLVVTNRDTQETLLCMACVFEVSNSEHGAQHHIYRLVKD

For the molecule `Cn1ncc2c(c1=O)Oc1cc(C(N)=O)c(-c3c(Cl)c(F)cc4c3CC(c3ccccc3)(C3CCCN3)O4)c(F)c1O2` [Compound 106, (S)-8-((S)-5-Chloro-6-fluoro-2-phenyl-2-((S)-pyrrolidin-2-yl)-2,3-dihydrobenzofuran-4-yl)-9-fluoro-3-methyl-4-oxo-3,4-dihydrobenzo[5,6][1,4]dioxo[2,3-d]pyridazine-7-carboxamide], the figures for the IC50 in experiment [1] and in experiment [2] were less than 50 nM and 200 to 500 nM, respectively.
As to `Cn1nc2c(cc1=O)Oc1cc(C(N)=O)c(-c3c(Cl)c(F)cc4c3C[C@](c3ccccc3)([C@@H]3CCCN3)O4)c(F)c1O2` (atropisomer, axis not shown) [Compound 122, (S)-8-((S)-5-Chloro-6-fluoro-2-phenyl-2-((S)-pyrrolidin-2-yl)-2,3-dihydrobenzofuran-4-yl)-9-fluoro-2-methyl-3-oxo-2,3-trihydrobenzo [5,6][1,4]dioxo [2,3-c]pyridazine-7-carboxamide], the IC50 is less than 50 nM in experiment [1] and less than 200 nM in experiment [2].
In the same order, the values of `NC(=O)c1cc2c(c(F)c1-c1c(Cl)c(F)cc3c1C[C@](c1ccccc1)([C@@H]1CCCN1)O3)OCc1nccnc1-2` (atropisomer, axis not shown) [Compound 6, (S)-8-((S)-5-Chloro-6-fluoro-2-phenyl-2-((S)-pyrrolidin-2-yl)-2,3-dihydrobenzofuran-4-yl)-7-fluoro-5H-chromeno[3,4-b]pyrazine-9-carboxamide] are less than 50 nM and less than 200 nM.
In the case of `[2H]C1([2H])CC[C@]([2H])([C@@]2(c3ccccc3)Cc3c(cc(F)c(Cl)c3-c3c(C(=O)NC)cc4c(c3F)Oc3c(cnn(C5CC(F)(F)C5)c3=O)O4)O2)N1` (atropisomer, axis not shown) [Compound 158, (S)-8-((S)-5-Chloro-6-fluoro-2-phenyl-2-((S)-pyrrolidin-2-yl-2,5,5-d3)-2,3-dihydrobenzofuran-4-yl)-2-(3,3-difluorocyclobutyl)-9-fluoro-N-methyl-1-oxo-1,2-dihydrobenzo[5,6][1,4]dioxo [2,3-d]pyridazine-7-carboxamide], the IC50 is less than 50 nM in experiment [1] and less than 200 nM in experiment [2].
Turning to `CCC(=O)N1CCOc2c1cc(C(N)=O)c(-c1c(Cl)c(F)cc3c1C[C@](c1ccccc1)([C@@H]1CCCN1)O3)c2F` (atropisomer, axis not shown) [Compound I-29, (S)-7-((S)-5-Chloro-6-fluoro-2-phenyl-2-((S)-pyrrolidin-2-yl)-2,3-dihydrobenzofuran-4-yl)-8-fluoro-4-propionyl-3,4-dihydro-2H-benzo[b][1,4]oxazine-6-carboxamide], the IC50 in experiment [1] was less than 50 nM; in experiment [2], 200 to 500 nM.
Take `CO[C@H]1CC[C@H](NC[C@@]2(c3ccccc3)Cc3c(cc(F)c(Cl)c3-c3c(C(N)=O)cc4c(c3F)OCc3nn(C)cc3-4)O2)CC1` (atropisomer, axis not shown) [Compound 78, (S)-7-((S)-5-Chloro-6-fluoro-2-((((1R,4S)-4-methoxycyclohexyl)amino)methyl)-2-phenyl-2,3-dihydrobenzofuran-4-yl)-6-fluoro-2-methyl-2,4-dihydrochromeno[3,4-c]pyrazole-8-carboxamide]: the figures for the IC50 in experiment [1] and in experiment [2] were less than 50 nM and less than 200 nM, respectively.
As for `CCn1ncc2c(c1=O)Oc1c(cc(C(N)=O)c(-c3c(Cl)c(F)cc4c3C[C@](c3ccccc3)([C@@H]3CCCN3)O4)c1F)O2` (atropisomer, axis not shown) [Compound 109, (S)-8-((S)-5-Chloro-6-fluoro-2-phenyl-2-((S)-pyrrolidin-2-yl)-2,3-dihydrobenzofuran-4-yl)-2-ethyl-9-fluoro-1-oxo-1,2-dihydrobenzo[5,6][1,4]dioxo [2,3-d]pyridazine-7-carboxamide], the IC50 in experiment [1] was less than 50 nM; in experiment [2], less than 200 nM.
`NC(=O)c1cc2c(c(F)c1-c1c(Cl)c(F)cc3c1C[C@](c1ccccc1)([C@@H]1CCCN1)O3)Oc1c(ncn(CCF)c1=O)O2` (atropisomer, axis not shown) [Compound 137, (S)-7-((S)-5-Chloro-6-fluoro-2-phenyl-2-((S)-pyrrolidin-2-yl)-2,3-dihydrobenzofuran-4-yl)-6-fluoro-3-(2-fluoroethyl)-4-oxo-3,4-dihydrobenzo[5,6][1,4]dioxo [2,3-d]pyrimidine-8-carboxamide]: the IC50 in experiment [1] was less than 50 nM; in experiment [2], less than 200 nM.
For the molecule `NC(=O)c1cc2c(c(F)c1-c1c(Cl)c(F)cc3c1C[C@](c1ccccc1)([C@@H]1CCCN1)O3)OCC1(CC1)O2` (atropisomer, axis not shown) [Compound 5, (S)-6-((S)-5-Chloro-6-fluoro-2-phenyl-2-((S)-pyrrolidin-2-yl)-2,3-dihydrobenzofuran-4-yl)-5-fluoro-3H-spiro[benzo[b][1,4]dioxoine-2, l'-cyclopropane]-7-carboxamide], the IC50 was less than 50 nM in experiment [1] and less than 200 nM in experiment [2].
Turning to `NC(=O)c1cc2c(c(F)c1-c1c(Cl)c(F)cc3c1C[C@](c1ccccc1)([C@@H]1CCCN1)O3)Oc1cnn(CCF)c(=O)c1O2` (atropisomer, axis not shown) [Compound 119, (S)-8-((S)-5-Chloro-6-fluoro-2-phenyl-2-((S)-pyrrolidin-2-yl)-2,3-dihydrobenzofuran-4-yl)-9-fluoro-3-(2-fluoroethyl)-4-oxo-3,4-dihydrobenzo[5,6][1,4]dioxo[2,3-d]pyridazine-7-carboxamide], the IC50 in experiment [1] is less than 50 nM; in experiment [2] it was 200 to 500 nM.
With `Cn1cc2c(n1)COc1c-2cc(C#N)c(-c2c(Cl)c(F)cc3c2C[C@](c2ccccc2)([C@@H]2CCCN2)O3)c1F` (atropisomer, axis not shown) [Compound 2, (S)-7-((S)-5-Chloro-6-fluoro-2-phenyl-2-((S)-pyrrolidin-2-yl)-2,3-dihydrobenzofuran-4-yl)-6-fluoro-2-methyl-2,4-dihydrochromeno[3,4-c]pyrazole-8-carbonitrile], the results for the IC50 in experiment [1] and in experiment [2] were less than 50 nM and 200 to 500 nM, respectively.
In the same order, the values of `CNC(=O)c1cc2c(c(F)c1-c1c(Cl)c(F)cc3c1C[C@](c1ccccc1)([C@@H]1CCCN1)O3)Oc1cnn(C)c(=O)c1O2` (atropisomer, axis not shown) [Compound 125, (S)-8-((S)-5-Chloro-6-fluoro-2-phenyl-2-((S)-pyrrolidin-2-yl)-2,3-dihydrobenzofuran-4-yl)-9-fluoro-N,3-dimethyl-4-oxo-3,4-dihydroxybenzo[5,6][1,4]dioxo[2,3-d]pyridazine-7-carboxamide] are less than 50 nM and less than 200 nM.
In the same order, the values of `CNC(=O)c1cc2c(c(F)c1-c1c(Cl)c(F)cc3c1C[C@](c1ccccc1)([C@@H]1CCCN1)O3)Oc1c(cnn(C3CC(F)(F)C3)c1=O)O2` (atropisomer, axis not shown) [Compound 148, (S)-8-((S)-5-Chloro-6-fluoro-2-phenyl-2-((S)-pyrrolidin-2-yl)-2,3-dihydrobenzofuran-4-yl)-2-(3,3-difluorocyclobutyl)-9-fluoro-N-methyl-1-oxo-1,2-dihydrobenzo [5,6][1,4]dioxo [2,3-d]pyridazine-7-carboxamide] are less than 50 nM and less than 200 nM.
